Earlier results as cited in patent US20100303937A1, “NOVEL COMPOSITION TO INCREASE TESTOSTERONE LEVELS” (priority 2009, published 2010).

Details: humans; prior art U.S. Pat. No. 5,880,117

For `C[C@]12CC[C@H]3[C@@H](CCC4=C[C@@H](O)CC[C@@]43C)[C@@H]1CC[C@@H]2O` [4-androstene-3β, 17β-diol], the “time within which concentration peaks after administration” value is given as ≤ 90 min.
